{
  "source": "BindingDB's records for doi:10.1016/j.bmcl.2010.09.009",
  "about": "(Merck Research Laboratories, 2010)",
  "assay": "Inhibition of PAR1-mediated aggregation of TRAP-stimulated human platelet",
  "data": [
    {"smiles": "CCOC(=O)N[C@@H]1CC[C@@H]2[C@@H](C1)C[C@H]1C(=O)O[C@H](C)[C@H]1[C@H]2C=Cc1ccc(-c2ccccn2)cn1", "note": "[ethyl(1R,3aR,4aR,6R,8aR,9S,9aS)-9-((E)-2-(2,3'-bipyridin-6'-yl)vinyl)-1-methyl-3-oxododecahydronaphtho[2,3-c]furan-6-ylcarbamate]", "values": [
      {"measurement": "IC50", "result": 180, "unit": "nM"}
    ]}
  ]
}
